Our source for the Ki values is patent US5712300A, “Hydroxamic acid derivatives useful for the treatment of diseases related to connective tissue degradation” (priority 1997, dated 1998).

Molecules are shown by their SMILES. Counter-ions that a name gives are not always drawn.

Common to all, as to format: biochemical
For one test, the target named is Stromelysin (Homo sapiens, UniProt P08254). The test is described as follows: MMP inhibition by particle concentration fluorescence technique (stromelysin). The note with it: pH 7.5; 15 min enzyme preincubation; substrate 1-3 h at room temperature; read-out: MMP Inhibition Constants, Stromelysin Ki. The method in brief:
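Fluorescein- and biotin-labelled substrate captured on avidin particles after reaction; intact, uncleaved substrate retains fluorescence, so signal rises with inhibition. Activated enzyme incubated with two-fold serial compound dilutions 15 minutes at room temperature.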

The target of the next test is Gelatinase. The test is described as follows: MMP inhibition by particle concentration fluorescence technique (gelatinase). To be noted: pH 7.5; 15 min enzyme preincubation; substrate 1-3 h at room temperature; read-out: MMP Inhibition Constants, Gelatinase Ki. An outline of the steps: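 Compound serially diluted two-fold in 50 mM Tris-HCl pH 7.5, 150 mM NaCl, preincubated 15 min with activated enzyme at room temperature. Fluorescein/biotin-tagged substrate then added for 1-3 hours in the dark. Intact substrate captured on avidin-coated particles; fluorescence signal indicates inhibition.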

The target in the next test is T1, Collagenase (Homo sapiens, UniProt P03956).
T1 sequence (P03956 100-469): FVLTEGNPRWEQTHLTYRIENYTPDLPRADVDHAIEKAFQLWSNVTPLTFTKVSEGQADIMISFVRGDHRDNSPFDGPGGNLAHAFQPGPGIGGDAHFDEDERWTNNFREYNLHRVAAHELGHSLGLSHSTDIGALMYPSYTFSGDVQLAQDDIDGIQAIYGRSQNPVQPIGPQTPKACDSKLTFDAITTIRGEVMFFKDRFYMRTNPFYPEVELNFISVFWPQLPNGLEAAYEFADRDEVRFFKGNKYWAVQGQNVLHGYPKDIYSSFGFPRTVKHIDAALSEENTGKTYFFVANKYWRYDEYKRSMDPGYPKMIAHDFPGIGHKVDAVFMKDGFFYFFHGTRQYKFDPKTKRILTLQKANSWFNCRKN
Put plainly: MMP inhibition by particle concentration fluorescence technique (collagenase). The note with it: pH 7.5; 15 min enzyme preincubation; substrate 1-3 h at room temperature; read-out: MMP Inhibition Constants, Collagenase Ki. Here is the method: Inhibitory activity is evaluated in one or more of the MMP enzymes (stromelysin, gelatinase, and collagenase) in vitro using a particle concentration fluorescence techniques. An inhibitor binds to MMP enzymes prevents the degradation of a substrate of stromelysin, gelatinase, or collagenase. The substrate is attached with a fluorescein and a biotin. The intact substrate then binds to an avidin-coated particle via the biotin moiety. Once the particle is washed and dried, a fluorescent signal is generated since the fluorescent group is attached to the particle. Without an inhibitor present, the substrate is degraded by MMP enzymes and the fluorescein group is removed, therefore, no fluorescent signal can be detected. Testing compounds are dissolved in DMSO to the desired concentration, then the solutions are diluted to 1:5 with MMP buffer (50 mM Tris-HCl, pH 7.5; 150 mM NaCl; 0.02% NAN3). Serial two-fold dilutions of each compound are prepared. A concentrated, activated enzyme solution is transferred into each plate of the testing compounds, and the mixture is incubated at room temperature for 15 minutes. Thawed MMP substrate is then added into all plates, and the plates are incubate in the dark for 1-3 hours at room temperature. At this point, the substrate mixture is reacted with 0.1% avidin-coated polystyrene particles.

Chain of Stromelysin (P08254 100-477): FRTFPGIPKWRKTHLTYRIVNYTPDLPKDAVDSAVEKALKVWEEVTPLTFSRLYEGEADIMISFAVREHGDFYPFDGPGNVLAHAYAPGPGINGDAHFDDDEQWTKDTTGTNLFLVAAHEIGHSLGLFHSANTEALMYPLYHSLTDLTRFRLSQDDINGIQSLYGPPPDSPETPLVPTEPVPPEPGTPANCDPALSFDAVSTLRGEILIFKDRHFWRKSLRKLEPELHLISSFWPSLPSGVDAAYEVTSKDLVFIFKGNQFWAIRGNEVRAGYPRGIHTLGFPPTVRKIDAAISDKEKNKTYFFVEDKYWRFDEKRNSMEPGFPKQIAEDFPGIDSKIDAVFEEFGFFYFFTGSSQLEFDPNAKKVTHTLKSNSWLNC

`CNC(=O)C(Cc1ccccc1)N1CCC(CC(=O)NO)(CC(C)C)C1=O` (stereo not drawn) [Example 21, N^3 -Hydroxy-N^1-methyl-3-(2-methylpropyl)-2-oxo-α^1-(phenylmethyl)-1,3-pyrrolidinediacetamide]: the figures for the Ki at Stromelysin, at Gelatinase and at Collagenase were 2080 nM, 49 nM and 22 nM, respectively.

For `CC(C)CC1(CC(=O)NO)CCN(Cc2ccccc2)C1=O` (stereo not drawn) [Example 23, N-Hydroxy-3-(2-methylpropyl)-2-oxo-1-(phenylmethyl)-3-pyrrolidineacetamide], the Ki (usually the equilibrium dissociation constant of an inhibitor or competing ligand from its target) at Stromelysin came to 4190 nM; at Gelatinase, 1560 nM; at Collagenase it was 453 nM.

For the compound `CNC(=O)[C@H](Cc1ccccc1)N1CC[C@](CC(=O)NO)(CC(C)C)C1=O` [Example 30, [S-(R*,R*)]-N^3 -Hydroxy-N^1-methyl-3-(2-methylpropyl)-2-oxo-α^1-(phenylmethyl)-1,3-pyrrolidinediacetamide], the Ki came to 1050 nM at Stromelysin, 24 nM at Gelatinase and 16 nM at Collagenase.

With `CC(C)C[C@@]1(CC(=O)NO)CCN([C@@H](Cc2ccccc2)C(=O)NCCc2ccccc2)C1=O` [Example 31, [S-(R*,R*)]-N^3 -Hydroxy-3-(2-methylpropyl)-2-oxo-N^1-(2-phenethyl)-α^1-(phenylmethyl)-1,3-pyrrolidinediacetamide], the inhibition constant (Ki) on Stromelysin was 517 nM; at Gelatinase, 19.3 nM; at Collagenase it was 96 nM.

For the compound `CNC(=O)[C@H](CC(C)C)N1CC[C@](CC(=O)NO)(CC(C)C)C1=O` [Example 32, [S-(R*,R*)]-N^3 -Hydroxy-N^1-methyl-α^1,3-bis(2-methylpropyl)-2-oxo-1,3-pyrrolidinediacetamide], the inhibitory constant (Ki) was found to be 730 nM at Stromelysin, 50 nM at Gelatinase and 36 nM at Collagenase.

Take `CNC(=O)[C@H](Cc1ccccc1)N1CC[C@@](CCC(C)C)(CC(=O)NO)C1=O` [Example 34, [S-(R*,R*)]-N^3 -Hydroxy-N^1-methyl-3-(3-methylbutyl)-2-oxo-α^1-(phenylmethyl)-1,3-pyrrolidinediacetamide]: the Ki on Stromelysin amounted to 4140 nM; at Gelatinase it was 31 nM; on Collagenase, 22 nM.

Turning to `CC(C)CC1(CC(=O)NO)CNN(CCc2ccccc2)C1=O` (stereo not drawn) [Example 38, N-Hydroxyl-4-(2-methylpropyl)-5-oxo-1-(2-phenylethyl)-4-pyrazolidineacetamide monohydrochloride], the values for the Ki on Stromelysin, on Gelatinase and at Collagenase were 31200 nM, 14500 nM and 13300 nM, respectively.

In the case of `CC(C)C[C@@]1(CC(=O)NO)CCN([C@@H](Cc2ccccc2)C(=O)Nc2ccccc2)C1=O` [Example 39, [S-(R*,R*)]-N^3 -Hydroxy-3-(2-methylpropyl)-2-oxo-N^1-phenyl-α^1-(phenylmethyl)-1,3-pyrrolidinediacetamide], the figures for the Ki at Stromelysin, on Gelatinase and on Collagenase were 101 nM, 75.9 nM and 5.81 nM, respectively.

For `CC(C)C[C@@]1(CC(=O)NO)CCN([C@@H](Cc2ccccc2)C(=O)NCc2ccccn2)C1=O` [Example 40, [S-(R*,R*)]-N^3 -Hydroxy-3-(2-methylpropyl)-2-oxo-α^1-(phenylmethyl)-N^1-(2-pyridinylmethyl)-1,3-pyrrolidinediacetamide], the Ki on Stromelysin worked out at 1990 nM; at Gelatinase it was 10.5 nM; at Collagenase, 37 nM.

Consider `CC(C)C[C@@]1(CC(=O)NO)CCN([C@@H](Cc2ccccc2)C(=O)Nc2ccncc2)C1=O` [Example 41, [S-(R*,R*)]-N^3 -Hydroxy-3-(2-methylpropyl)-2-oxo-α^1-(phenylmethyl)-N^1-(4-pyridinyl)-1,3-pyrrolidinediacetamide], for which the Ki on Stromelysin is 14 nM; on Gelatinase it was 2.3 nM; at Collagenase, 2.8 nM.

With `CC(C)C[C@@]1(CC(=O)NO)CCN([C@@H](Cc2ccccc2)C(=O)Nc2ccc(F)cc2)C1=O` [Example 42, [S-(R*,R*)]-N^1-(4-Fluorophenyl)-N^3-hydroxy-3-(2-methylpropyl)-2-oxo-α^1-(phenylmethyl)-1,3-pyrrolidinediacetamide], the Ki at Stromelysin came to 25.5 nM; at Gelatinase it was 5.4 nM; at Collagenase, 2.44 nM.

Consider `CC(C)C[C@@]1(CC(=O)NO)CCN([C@@H](Cc2ccccc2)C(=O)NC2CCN(Cc3ccccc3)CC2)C1=O` [Example 43, [S-(R*,R*)]-N^3 -Hydroxy-3-(2-methylpropyl)-2-oxo-α^1-(phenylmethyl)-N^1-[1-(phenylmethyl)-4-piperdinyl]-1,3-pyrrolidinediacetamide], for which the Ki was 1800 nM at Stromelysin, 2.3 nM on Gelatinase and 2.36 nM on Collagenase.

For the compound `CC(C)C[C@@]1(CC(=O)NO)CCN([C@@H](Cc2ccccc2)C(=O)NC2CCNCC2)C1=O` [Example 44, [S-(R*,R*)]-N^3 -Hydroxy-3-(2-methylpropyl)-2-oxo-α^1-(phenylmethyl)-N^1-(4-piperdinyl)-1,3-pyrrolidinediacetamide], the Ki at Stromelysin stood at 4000 nM; on Gelatinase, 11 nM; on Collagenase, 20.2 nM.

As to `CC(C)C[C@@]1(CC(=O)NO)CCN([C@@H](Cc2ccccc2)C(=O)NCc2ccncc2)C1=O` [Example 45, [S-(R*,R*)]-N^3 -Hydroxy-3-(2-methylpropyl)-2-oxo-α^1-(phenylmethyl)-N^1-(4-pyridinylmethyl)-1,3-pyrrolidinediacetamide], the Ki is 1010 nM at Stromelysin, 17 nM at Gelatinase and 23.5 nM on Collagenase.

With `CC(C)C[C@@]1(CC(=O)NO)CCN([C@@H](Cc2ccccc2)C(=O)NCc2ccc(F)cc2)C1=O` [Example 46, [S-(R*,R*)]-N^1-(4-Fluorophenylmethyl)-N^3-hydroxy-3-(2-methylpropyl)-2-oxo-α^1-(phenylmethyl)-1,3-pyrrolidinediacetamide], the inhibitory constant (Ki) at Stromelysin was found to be 2100 nM; on Gelatinase, 40 nM; at Collagenase, 35 nM.

`CNC(=O)[C@H](CCc1ccccc1)N1CC[C@](CC(=O)NO)(CC(C)C)C1=O` [Example 47, [S-(R*,R*)]-N^3 -Hydroxy-N^1-methyl-3-(2-methylpropyl)-2-oxo-α^1-(2-phenylethyl)-1,3-pyrrolidinediacetamide]: the inhibitory constant (Ki) came out at 868 nM at Stromelysin, 85.3 nM on Gelatinase and 81.5 nM at Collagenase.

On to `CC(C)C[C@@]1(CC(=O)NO)CCN([C@@H](CCc2ccccc2)C(=O)NCc2ccccc2)C1=O` [Example 48, [S-(R*,R*)]-N^3 -Hydroxy-3-(2-methylpropyl)-2-oxo-α^1-(2-phenylethyl)-N^1-(phenylmethyl)-1,3-pyrrolidinediacetamide], for which the figures for the Ki on Stromelysin, at Gelatinase and on Collagenase were 385 nM, 160 nM and 72 nM, respectively.

Consider `CC(C)C[C@@H](C(=O)Nc1ccccn1)N1CC[C@](CC(=O)NO)(CC(C)C)C1=O` [Example 49, [S-(R*,R*)]-N^3 -Hydroxy-α^1,3-bis(2-methylpropyl)-2-oxo-N^1-2-pyridinyl-1,3-pyrrolidinediacetamide], for which the figures for the inhibition constant Ki on Stromelysin, on Gelatinase and at Collagenase were 138 nM, 61 nM and 85 nM, respectively.

As for `CNC(=O)[C@H](C1CCCCC1)N1CC[C@](CC(=O)NO)(CC(C)C)C1=O` [Example 50, [S-(R*,R*)]-α^1 -Cyclohexyl-N^3-hydroxy-N^1-methyl-3-(2-methylpropyl)-2-oxo-1,3-pyrrolidinediacetamide], the inhibitory constant (Ki) amounted to 283 nM at Stromelysin, 17 nM at Gelatinase and 6.06 nM on Collagenase.
